Measured values published in ChEMBL document CHEMBL1629642, “In vitro efficacy of ST246 against smallpox and monkeypox” (Antimicrob Agents Chemother, 2009).
Activity calls are given as the source filed them. The calls are words filed in the database; no cut-off is given here.

Legend:
Monkeypox virus [1] = assay: Antiviral activity against Monkeypox virus V1979-I-005 infected in african green monkey BSC-40 cells at 0.05 to 0.5 uM by IHC staining-based comet tail reduction assay; type: functional, organism-based
Variola virus [2] = assay: Antiviral activity against Variola virus SOM77-ali infected in african green monkey BSC-40 cells at 0.015 uM assessed as reduction in virus-induced cytopathic effect; type: functional, organism-based
Monkeypox virus [3] = assay: Antiviral activity against Monkeypox virus V77-I-823 infected in african green monkey BSC-40 cells at 0.05 to 0.5 uM by IHC staining-based plaque reduction assay; type: functional, organism-based
Monkeypox virus [4] = assay: Antiviral activity against Monkeypox virus V77-I-823 infected in african green monkey BSC-40 cells assessed as reduction in virus-induced cytopathic effect; type: functional, organism-based; details: V77-I-823, BSC-40
Variola virus [5] = assay: Antiviral activity against Variola virus NEP73-175 infected in african green monkey BSC-40 cells at 0.015 uM assessed as reduction in virus-induced cytopathic effect; type: functional, organism-based
Monkeypox virus [6] = assay: Antiviral activity against Monkeypox virus 2003-USA-039 infected in african green monkey BSC-40 cells assessed as reduction in virus-induced cytopathic effect at 0.05 to 5 uM; type: functional, organism-based
Variola virus [7] = assay: Antiviral activity against Variola virus SLN68-258 infected in african green monkey BSC-40 cells at 0.05 to 5 uM assessed as reduction in virus-induced cytopathic effect; type: functional, organism-based
Monkeypox virus [8] = assay: Antiviral activity against Monkeypox virus 2003-USA-039 infected in african green monkey BSC-40 cells at 0.05 to 0.5 uM by IHC staining-based plaque reduction assay; type: functional, organism-based
Variola virus [9] = assay: microbe, parasite or virus in culture; details: BRZ66-39, BSC-40
Variola virus [10] = assay: Antiviral activity against Variola virus BSH74-sol infected in african green monkey BSC-40 cells at 0.005 uM by IHC staining-based comet tail reduction assay; type: functional, organism-based
Variola virus [11] = assay: Antiviral activity against Variola virus SLN68-258 infected in african green monkey BSC-40 cells at 0.015 uM by IHC staining-based comet tail reduction assay; type: functional, organism-based
Monkeypox virus [12] = assay: Antiviral activity against Monkeypox virus V78-I-3945 infected in african green monkey BSC-40 cells at 0.05 to 0.5 uM by IHC staining-based plaque reduction assay; type: functional, organism-based
Monkeypox virus [13] = assay: Antiviral activity against Monkeypox virus V81-I-179 infected in african green monkey BSC-40 cells assessed as reduction in viral plaque formation at 0.015 uM uM by IHC staining-based plaque reduction assay; type: functional
Variola virus [14] = assay: Antiviral activity against Variola virus SUD47-juba infected in african green monkey BSC-40 cells at 0.005 uM assessed as reduction in virus-induced cytopathic effect; type: functional, organism-based
Variola virus [15] = assay: Antiviral activity against Variola virus BSH74-sol infected in african green monkey BSC-40 cells at 0.05 to 5 uM assessed as reduction in virus-induced cytopathic effect; type: functional, organism-based
Variola virus [16] = assay: Antiviral activity against Variola virus BSH74-sol infected in african green monkey BSC-40 cells at 0.015 uM by IHC staining-based comet tail reduction assay; type: functional, organism-based
Monkeypox virus [17] = assay: Antiviral activity against Monkeypox virus 2003-USA-039 infected in african green monkey BSC-40 cells assessed as reduction in virus-induced cytopathic effect at 0.015 uM; type: functional, organism-based
Variola virus [18] = assay: Antiviral activity against Variola virus NEP73-175 infected in african green monkey BSC-40 cells at 0.005 uM by IHC staining-based comet tail reduction assay; type: functional, organism-based
Monkeypox virus [19] = assay: Antiviral activity against Monkeypox virus V1979-I-005 infected in african green monkey BSC-40 cells assessed as reduction in virus-induced cytopathic effect; type: functional, organism-based; details: V1979-I-005, BSC-40
Monkeypox virus [20] = assay: Antiviral activity against Monkeypox virus V1979-I-005 infected in african green monkey BSC-40 cells at 0.05 to 0.5 uM by IHC staining-based plaque reduction assay; type: functional, organism-based
Variola virus [21] = assay: Antiviral activity against Variola virus BSH74-sol infected in african green monkey BSC-40 cells assessed as reduction in viral plaque formation at 0.015 uM uM by IHC staining-based plaque reduction assay; type: functional
Monkeypox virus [22] = assay: Antiviral activity against Monkeypox virus V1979-I-005 infected in african green monkey BSC-40 cells assessed as reduction in virus-induced cytopathic effect at 0.015 uM; type: functional, organism-based
Monkeypox virus [23] = assay: Antiviral activity against Monkeypox virus V78-I-3945 infected in african green monkey BSC-40 cells assessed as reduction in virus-induced cytopathic effect at 0.015 uM; type: functional, organism-based
Monkeypox virus [24] = assay: Antiviral activity against Monkeypox virus 2003-USA-039 infected in african green monkey BSC-40 cells at 0.05 to 0.5 uM by IHC staining-based comet tail reduction assay; type: functional, organism-based
Variola virus [25] = assay: Antiviral activity against Variola virus NEP73-175 infected in african green monkey BSC-40 cells at 0.05 to 0.5 uM by IHC staining-based comet tail reduction assay; type: functional, organism-based
Variola virus [26] = assay: Antiviral activity against Variola virus BSH74-sol infected in african green monkey BSC-40 cells at 0.015 uM assessed as reduction in virus-induced cytopathic effect; type: functional, organism-based
Variola virus [27] = assay: microbe, parasite or virus in culture; details: SLN68-258, BSC-40
Monkeypox virus [28] = assay: Antiviral activity against Monkeypox virus 2003-USA-039 infected in african green monkey BSC-40 cells assessed as reduction in virus-induced cytopathic effect at 0.005 uM; type: functional, organism-based
Monkeypox virus [29] = assay: Antiviral activity against Monkeypox virus V78-I-3945 infected in african green monkey BSC-40 cells at 0.005 uM uM by IHC staining-based plaque reduction assay; type: functional, organism-based
Monkeypox virus [30] = assay: Antiviral activity against Monkeypox virus 2003-USA-039 infected in african green monkey BSC-40 cells at 0.005 uM by IHC staining-based comet tail reduction assay; type: functional, organism-based
Variola virus [31] = assay: Antiviral activity against Variola virus SOM77-ali infected in african green monkey BSC-40 cells assessed as reduction in viral plaque formation at 0.015 uM uM by IHC staining-based plaque reduction assay; type: functional
Monkeypox virus [32] = assay: Antiviral activity against Monkeypox virus V78-I-3945 infected in african green monkey BSC-40 cells assessed as reduction in virus-induced cytopathic effect at 0.005 uM; type: functional, organism-based
Monkeypox virus [33] = assay: Antiviral activity against Monkeypox virus V1979-I-005 infected in african green monkey BSC-40 cells assessed as reduction in viral plaque formation at 0.015 uM uM by IHC staining-based plaque reduction assay; type: functional
Monkeypox virus [34] = assay: Antiviral activity against Monkeypox virus V78-I-3945 infected in african green monkey BSC-40 cells at 0.005 uM by IHC staining-based comet tail reduction assay; type: functional, organism-based
Variola virus [35] = assay: Antiviral activity against Variola virus NEP73-175 infected in african green monkey BSC-40 cells assessed as reduction in viral plaque formation at 0.015 uM uM by IHC staining-based plaque reduction assay; type: functional
Variola virus [36] = assay: Antiviral activity against Variola virus SLN68-258 infected in african green monkey BSC-40 cells at 0.005 uM by IHC staining-based comet tail reduction assay; type: functional, organism-based
Variola virus [37] = assay: Antiviral activity against Variola virus SOM77-ali infected in african green monkey BSC-40 cells at 0.005 uM uM by IHC staining-based plaque reduction assay; type: functional, organism-based

O=C(NN1C(=O)[C@@H]2[C@@H]3C=C[C@@H]([C@H]4C[C@@H]34)[C@@H]2C1=O)c1ccc(C(F)(F)F)cc1 [TECOVIRIMAT]
Activity (Monkeypox virus [1]): Active
Activity (Variola virus [2]): Active
Activity (Monkeypox virus [3]): Active
EC50 (Monkeypox virus [4]): 0.03 µM
Activity (Variola virus [5]): Active
Activity (Monkeypox virus [6]): Active
Activity (Variola virus [7]): Active
Activity (Monkeypox virus [8]): Active
EC50 (Variola virus [9]): 0.067 µM
Activity (Variola virus [10]): inactive
Activity (Variola virus [11]): Active
Activity (Monkeypox virus [12]): Active
inhibition (INH) (Monkeypox virus [13]): 50%
Activity (Variola virus [14]): inactive
Activity (Variola virus [15]): Active
Activity (Variola virus [16]): Active
Activity (Monkeypox virus [17]): Active
Activity (Variola virus [18]): inactive
EC50 (Monkeypox virus [19]): 0.039 µM
Activity (Monkeypox virus [20]): Active
inhibition (INH) (Variola virus [21]): 50%
Activity (Monkeypox virus [22]): Active
Activity (Monkeypox virus [23]): Active
Activity (Monkeypox virus [24]): Active
Activity (Variola virus [25]): Active
Activity (Variola virus [26]): Active
EC50 (Variola virus [27]): 0.037 µM
Activity (Monkeypox virus [28]): inactive
Activity (Monkeypox virus [29]): inactive
Activity (Monkeypox virus [30]): inactive
inhibition (INH) (Variola virus [31]): 50%
Activity (Monkeypox virus [32]): inactive
inhibition (INH) (Monkeypox virus [33]): 50%
Activity (Monkeypox virus [34]): inactive
inhibition (INH) (Variola virus [35]): 50%
Activity (Variola virus [36]): inactive
Activity (Variola virus [37]): inactive
